In PubChem BioAssay AID2060904 (Molecular Pharmacology Branch, DTP, NCI, 2025):

Test system: 349418-098-R-PDC complex spheroid viability
Assay: Anticancer human tumor 349418-098-R-PDC patient-derived lung adenocarcinoma cell line growth inhibition [RAS]
Conditions: for IC50: curve of first compound; for viability, T/C: stronger effect = lower value
In short: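 Agents were tested in combination matrices in half-log decrements from a top concentration at or near clinical Cmax (10 microM if undetermined). Targets were multi-cell spheroids of tumour lines plus HUVEC and MSC stromal cells.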

[1] = second compound 0.0316 µM, first compound 0.00316 µM
[2] = second compound 0.0316 µM, first compound 0.01 µM
[3] = second compound 0.0316 µM, first compound 0.0316 µM
[4] = second compound 0.0316 µM, first compound 0.1 µM
[5] = second compound 0.0316 µM, first compound 0.316 µM
[6] = second compound 0.0316 µM, first compound 1 µM
[7] = second compound 0.1 µM, first compound 0.00316 µM
[8] = second compound 0.1 µM, first compound 0.01 µM
[9] = second compound 0.1 µM, first compound 0.0316 µM
[10] = second compound 0.1 µM, first compound 0.1 µM
[11] = second compound 0.1 µM, first compound 0.316 µM
[12] = second compound 0.1 µM, first compound 1 µM
[13] = second compound 0.316 µM, first compound 0.00316 µM
[14] = second compound 0.316 µM, first compound 0.01 µM
[15] = second compound 0.316 µM, first compound 0.0316 µM
[16] = second compound 0.316 µM, first compound 0.1 µM
[17] = second compound 0.316 µM, first compound 0.316 µM
[18] = second compound 0.316 µM, first compound 1 µM
[19] = second compound 1 µM, first compound 0.00316 µM
[20] = second compound 1 µM, first compound 0.01 µM
[21] = second compound 1 µM, first compound 0.0316 µM
[22] = second compound 1 µM, first compound 0.1 µM
[23] = second compound 1 µM, first compound 0.316 µM
[24] = second compound 1 µM, first compound 1 µM
[25] = second compound 3.16 µM, first compound 0.0316 µM
[26] = second compound 3.16 µM, first compound 0.1 µM
[27] = second compound 3.16 µM, first compound 0.316 µM
[28] = second compound 3.16 µM, first compound 1 µM
[29] = second compound 10 µM, first compound 0.0316 µM
[30] = second compound 10 µM, first compound 0.1 µM
[31] = second compound 10 µM, first compound 0.316 µM
[32] = second compound 10 µM, first compound 1 µM
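Also: spheroids exposed to compound for seven days before viability readout.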

SMILES: C=CC(=O)Nc1cc(Nc2nccc(-c3cn(C)c4ccccc34)n2)c(OC)cc1N(C)CCN(C)C + C#Cc1c(F)ccc2cc(O)cc(-c3ncc4c(N5CC6CCC(C5)N6)nc(OCC56CCCN5CC(F)C6)nc4c3F)c12
- IC50 (second compound 0.0316 µM): > 1 µM
- IC50 (second compound 0.1 µM): > 1 µM
- IC50 (second compound 0.316 µM): > 1 µM
- IC50 (second compound 1 µM): > 1 µM
- IC50 (second compound 3.16 µM): > 1 µM
- IC50 (second compound 10 µM): 0.465 µM
- viability, T/C [1]: 97.1%
- viability, T/C [2]: 130%
- viability, T/C [3]: 95.5%
- viability, T/C [4]: 86.1%
- viability, T/C [5]: 84.3%
- viability, T/C [6]: 92.3%
- viability, T/C [7]: 93.5%
- viability, T/C [8]: 125%
- viability, T/C [9]: 82.3%
- viability, T/C [10]: 68.3%
- viability, T/C [11]: 80.2%
- viability, T/C [12]: 66.5%
- viability, T/C [13]: 86.7%
- viability, T/C [14]: 119%
- viability, T/C [15]: 85.8%
- viability, T/C [16]: 86.2%
- viability, T/C [17]: 89.5%
- viability, T/C [18]: 95.7%
- viability, T/C [19]: 80.2%
- viability, T/C [20]: 121%
- viability, T/C [21]: 85.3%
- viability, T/C [22]: 73.1%
- viability, T/C [23]: 89.2%
- viability, T/C [24]: 82.5%
- viability, T/C (second compound 3.16 µM, first compound 0.00316 µM): 73.6%
- viability, T/C (second compound 3.16 µM, first compound 0.01 µM): 91.2%
- viability, T/C [25]: 84.9%
- viability, T/C [26]: 82.8%
- viability, T/C [27]: 67.6%
- viability, T/C [28]: 86.4%
- viability, T/C (second compound 10 µM, first compound 0.00316 µM): 55.6%
- viability, T/C (second compound 10 µM, first compound 0.01 µM): 62%
- viability, T/C [29]: 88.9%
- viability, T/C [30]: 65.2%
- viability, T/C [31]: 72.9%
- viability, T/C [32]: 12.4%

SMILES: CC(=O)OC12COC1CC(O)C1(C)C(=O)C(O)C3=C(C)C(OC(=O)C(O)C(NC(=O)OC(C)(C)C)c4ccccc4)CC(O)(C(OC(=O)c4ccccc4)C21)C3(C)C (stereo unspecified) + C#Cc1c(F)ccc2cc(O)cc(-c3ncc4c(N5CC6CCC(C5)N6)nc(OCC56CCCN5CC(F)C6)nc4c3F)c12
- IC50 (second compound 0.0316 µM): < 0.0316 µM
- IC50 (second compound 0.1 µM): < 0.0316 µM
- IC50 (second compound 0.316 µM): < 0.0316 µM
- IC50 (second compound 1 µM): < 0.0316 µM
- IC50 (second compound 3.16 µM): < 0.0316 µM
- IC50 (second compound 10 µM): < 0.0316 µM
- viability, T/C [3]: 16.5%
- viability, T/C [4]: 15.4%
- viability, T/C [5]: 21.2%
- viability, T/C [6]: 19.1%
- viability, T/C (second compound 0.0316 µM, first compound 3.16 µM): 19.9%
- viability, T/C (second compound 0.0316 µM, first compound 10 µM): 22.4%
- viability, T/C [9]: 16.3%
- viability, T/C [10]: 23.3%
- viability, T/C [11]: 19.9%
- viability, T/C [12]: 18.4%
- viability, T/C (second compound 0.1 µM, first compound 3.16 µM): 24.4%
- viability, T/C (second compound 0.1 µM, first compound 10 µM): 27%
- viability, T/C [15]: 16.1%
- viability, T/C [16]: 19.1%
- viability, T/C [17]: 26%
- viability, T/C [18]: 21.1%
- viability, T/C (second compound 0.316 µM, first compound 3.16 µM): 23.3%
- viability, T/C (second compound 0.316 µM, first compound 10 µM): 24.5%
- viability, T/C [21]: 16.8%
- viability, T/C [22]: 16.6%
- viability, T/C [23]: 21.4%
- viability, T/C [24]: 18.2%
- viability, T/C (second compound 1 µM, first compound 3.16 µM): 19.1%
- viability, T/C (second compound 1 µM, first compound 10 µM): 24.4%
- viability, T/C [25]: 13.2%
- viability, T/C [26]: 17.9%
- viability, T/C [27]: 17.5%
- viability, T/C [28]: 24.6%
- viability, T/C (second compound 3.16 µM, first compound 3.16 µM): 31.2%
- viability, T/C (second compound 3.16 µM, first compound 10 µM): 23.4%
- viability, T/C [29]: 7.77%
- viability, T/C [30]: 5.42%
- viability, T/C [31]: 9.77%
- viability, T/C [32]: 6.32%
- viability, T/C (second compound 10 µM, first compound 3.16 µM): 7.62%
- viability, T/C (second compound 10 µM, first compound 10 µM): 5.03%

SMILES: Nc1ccn(C2OC(CO)C(O)C2(F)F)c(=O)n1 (stereo unspecified) + C=CC(=O)N1CCN(c2nc(OCC3CCCN3C)nc3c(F)c(-c4nc(N)cc(C)c4C(F)(F)F)c(Cl)cc23)C(C)C1
- IC50 (second compound 0.00316 µM): < 0.00316 µM
- IC50 (second compound 0.01 µM): < 0.00316 µM
- IC50 (second compound 0.0316 µM): < 0.00316 µM
- IC50 (second compound 0.1 µM): < 0.00316 µM
- IC50 (second compound 0.316 µM): < 0.00316 µM
- IC50 (second compound 1 µM): < 0.00316 µM
- viability, T/C (second compound 0.00316 µM, first compound 0.00316 µM): 21.5%
- viability, T/C (second compound 0.00316 µM, first compound 0.01 µM): 7.36%
- viability, T/C (second compound 0.00316 µM, first compound 0.0316 µM): 6.2%
- viability, T/C (second compound 0.00316 µM, first compound 0.1 µM): 4.92%
- viability, T/C (second compound 0.00316 µM, first compound 0.316 µM): 5.23%
- viability, T/C (second compound 0.00316 µM, first compound 1 µM): 5.62%
- viability, T/C (second compound 0.01 µM, first compound 0.00316 µM): 17%
- viability, T/C (second compound 0.01 µM, first compound 0.01 µM): 6.27%
- viability, T/C (second compound 0.01 µM, first compound 0.0316 µM): 5.91%
- viability, T/C (second compound 0.01 µM, first compound 0.1 µM): 5.09%
- viability, T/C (second compound 0.01 µM, first compound 0.316 µM): 5.47%
- viability, T/C (second compound 0.01 µM, first compound 1 µM): 5.2%
- viability, T/C [1]: 21.6%
- viability, T/C [2]: 6.92%
- viability, T/C [3]: 6.95%
- viability, T/C [4]: 5.38%
- viability, T/C [5]: 5.08%
- viability, T/C [6]: 4.96%
- viability, T/C [7]: 22.6%
- viability, T/C [8]: 6.48%
- viability, T/C [9]: 4.56%
- viability, T/C [10]: 4.77%
- viability, T/C [11]: 4.97%
- viability, T/C [12]: 4.84%
- viability, T/C [13]: 19.2%
- viability, T/C [14]: 8.3%
- viability, T/C [15]: 4.99%
- viability, T/C [16]: 5.68%
- viability, T/C [17]: 6.7%
- viability, T/C [18]: 4.81%
- viability, T/C [19]: 22.9%
- viability, T/C [20]: 6.24%
- viability, T/C [21]: 4.96%
- viability, T/C [22]: 6.96%
- viability, T/C [23]: 7.44%
- viability, T/C [24]: 5.82%
